Converted amounts (≈) assume the structure as drawn.
Tested on: Staphylococcus aureus (ATTC 25923)
Assay: microbe, parasite or virus in culture
Assay type: cell-based
Settings: ATTC 25923
Method in brief: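 Di-TFA salts tested in duplicate at 0.5–200 μg/ml against exponential-phase bacteria at 2×10^6 cfu/ml grown in 2% peptone water. Growth judged by well turbidity, with no-peptide and gentamicin controls.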

Question: Which “MBC S. aureus” value does the source give for `CN(C)CCN1CCN(C(=O)C(CN)(Cc2ccc3ccccc3c2)Cc2ccc3ccccc3c2)CC1` [Compound 4c] here?
Answer: Its value is 7.2 µM (≈ 3.66 µg/mL).

Question: And the “Therapeutic index S. aureus” value?
Answer: Its value is 20.

Question: For `N=C(N)NCCC[C@H](NC(=O)C(CN)(Cc1ccc2ccccc2c1)Cc1ccc2ccccc2c1)C(N)=O` [Compound 4g], which “MBC S. aureus” value is on record?
Answer: The value was 6.6 µM (≈ 3.46 µg/mL).

Question: Which “MBC S. aureus” value does the source give for `Cc1ccc(CC(CN)(Cc2ccc(C)cc2)C(=O)N[C@@H](CCCNC(=N)N)C(N)=O)cc1` [Compound 4h] here?
Answer: The value was 147 µM (≈ 66.5 µg/mL).

Question: Which “MBC S. aureus” value does the source give for `N=C(N)NCCC[C@H](NC(=O)C(CN)(Cc1ccc(C(F)(F)F)cc1)Cc1ccc(C(F)(F)F)cc1)C(N)=O` [Compound 4i] here?
Answer: Its value is 12.7 µM (≈ 7.12 µg/mL).

Same assay, conditions: ATTC 25923; read-out: MIC S. aureus

Question: For `N=C(N)NCCC[C@H](NC(=O)C(CN)(Cc1ccc2ccccc2c1)Cc1ccc2ccccc2c1)C(N)=O` [Compound 4g], which MIC is on record?
Answer: Its MIC is 6.6 µM (≈ 3.46 µg/mL).

Question: Which MIC does the source give for `Cc1ccc(CC(CN)(Cc2ccc(C)cc2)C(=O)N[C@@H](CCCNC(=N)N)C(N)=O)cc1` [Compound 4h] here?
Answer: Its MIC is 147 µM (≈ 66.5 µg/mL).

Question: For `N=C(N)NCCC[C@H](NC(=O)C(CN)(Cc1ccc(C(F)(F)F)cc1)Cc1ccc(C(F)(F)F)cc1)C(N)=O` [Compound 4i], which MIC is on record?
Answer: Its MIC is 12.7 µM (≈ 7.12 µg/mL).

Tested on: Escherichia coli (ATTC 25922)
Assay: microbe, parasite or virus in culture
Assay type: cell-based
Settings: ATTC 25922
Method in brief: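 Broth dilution in 2% Bacto Peptone water, inoculum 2×10^6 cfu/ml of exponential-phase bacteria; compounds (di-TFA salts) tested in duplicate at 200 down to 0.5 μg/ml. Growth judged by well turbidity, with no-peptide negative and gentamicin positive controls.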

Question: With `CN(C)CCN1CCN(C(=O)C(CN)(Cc2ccc3ccccc3c2)Cc2ccc3ccccc3c2)CC1` [Compound 4c] as the molecule, how does the “MBC E. coli” value read?
Answer: The value was 289 µM (≈ 147 µg/mL).

Question: And the “Therapeutic index E. coli” value?
Answer: The value was 8.5.

Question: For `N=C(N)NCCC[C@H](NC(=O)C(CN)(Cc1ccc2ccccc2c1)Cc1ccc2ccccc2c1)C(N)=O` [Compound 4g], which “MBC E. coli” value is on record?
Answer: The value was 266 µM (≈ 140 µg/mL).

Question: For `Cc1ccc(CC(CN)(Cc2ccc(C)cc2)C(=O)N[C@@H](CCCNC(=N)N)C(N)=O)cc1` [Compound 4h], which “MBC E. coli” value is on record?
Answer: Its value is >294 µM.

Question: For `N=C(N)NCCC[C@H](NC(=O)C(CN)(Cc1ccc(C(F)(F)F)cc1)Cc1ccc(C(F)(F)F)cc1)C(N)=O` [Compound 4i], which “MBC E. coli” value is on record?
Answer: The value was >254 µM.

Same assay, conditions: ATTC 25922; read-out: MIC E. coli

Question: For `N=C(N)NCCC[C@H](NC(=O)C(CN)(Cc1ccc2ccccc2c1)Cc1ccc2ccccc2c1)C(N)=O` [Compound 4g], which MIC is on record?
Answer: The MIC was 266 µM (≈ 140 µg/mL).

Question: Which MIC does the source give for `N=C(N)NCCC[C@H](NC(=O)C(CN)(Cc1ccc(C(F)(F)F)cc1)Cc1ccc(C(F)(F)F)cc1)C(N)=O` [Compound 4i] here?
Answer: Its MIC is 254 µM (≈ 142 µg/mL).

Molecular target: α-chymotrypsin (Bos taurus, UniProt P00766, DEL14-15/DEL147-148)
Assay: Stability against α-chymotrypsin
Assay type: in vitro ADME
Settings: over a period of 48 hours
Description: The stability testing against α-chymotrypsin was conducted by dissolving the desired compounds to 1 mg/ml in water. α-Chymotrypsin was dissolved to 0.1 mg/ml in 1 mM HCl containing 2 mM CaCl2. The enzymatic digestion was performed in 100 mM TRIS HCl containing 10 mM CaCl2. Final enzyme concentration was 2 μg/ml, and final peptide concentration was 100 μg/ml. Total volume was 0.5 ml.
15 μl samples were collected at 0, 15, 30, 60, 120 and 240 min in addition to the 24 and 48 hours samples. To the samples it was added an external standard (atenolol hydrochloride) and 100 μl 10% acetic acid to terminate digestion before it was diluted to 1 ml with water.
For every test there were done a negative control without enzyme to ensure that degradation was due to enzyme activity and not other factors. Succinyl-ala-ala-pro-phe-para nitroanhiine was used as positive control. All test were run in triplicates.

Question: For `CN(C)CCN1CCN(C(=O)C(CN)(Cc2ccc3ccccc3c2)Cc2ccc3ccccc3c2)CC1` [Compound 4c], which “proteolytic stability against α-chymotrypsin” value (from here on “proteolytic stability”) is on record?
Answer: The value was “no degradation could be detected”.

Question: Which “proteolytic stability” value does the source give for `N=C(N)NCCC[C@H](NC(=O)C(CN)(Cc1ccc2ccccc2c1)Cc1ccc2ccccc2c1)C(N)=O` [Compound 4g] here?
Answer: Its value is “no degradation could be detected”.

Question: Which “proteolytic stability” value does the source give for `Cc1ccc(CC(CN)(Cc2ccc(C)cc2)C(=O)N[C@@H](CCCNC(=N)N)C(N)=O)cc1` [Compound 4h] here?
Answer: The value was “no degradation could be detected”.

Question: Which “proteolytic stability” value does the source give for `N=C(N)NCCC[C@H](NC(=O)C(CN)(Cc1ccc(C(F)(F)F)cc1)Cc1ccc(C(F)(F)F)cc1)C(N)=O` [Compound 4i] here?
Answer: The value was “no degradation could be detected”.

Tested on: human red blood cells
Assay: cells
Assay type: cell-based
Settings: Example 1; 50% hemolysis of human red blood cells; highest concentration tested 1000 μg/ml
Method in brief: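 Washed heparinized RBCs, diluted to 10% hematocrit then to 1% v/v final, incubated with compounds in PBS (1–1000 μg/mL) for 1 h at 37 °C with agitation. Hemoglobin release read at 405 nm against PBS (0%) and 0.1% Triton X-100 (100%); value reported is concentration giving 50% hemolysis.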

Question: With `CN(C)CCN1CCN(C(=O)C(CN)(Cc2ccc3ccccc3c2)Cc2ccc3ccccc3c2)CC1` [Compound 4c] as the molecule, how does the “EC50 RBC” value read?
Answer: The value was “— (The notation “—”denotes no detectable activity (MIC or EC50) within the concentration range tested.)”.

Same assay, conditions: red cells of human

Question: For `CN(C)CCN1CCN(C(=O)C(CN)(Cc2ccc3ccccc3c2)Cc2ccc3ccccc3c2)CC1` [Compound 4c], which EC50 is on record?
Answer: Its EC50 is 409 µM.

Question: For `N=C(N)NCCC[C@H](NC(=O)C(CN)(Cc1ccc2ccccc2c1)Cc1ccc2ccccc2c1)C(N)=O` [Compound 4g], which EC50 is on record?
Answer: Its EC50 is 470 µM.

Tested on: not listed separately
Assay: Phospholipid vesicle based barrier model permeability
Assay type: in vitro ADME
Settings: not told
From the text: Encouraged by the theoretical calculations, the permeability of the β^2,2-amino acid derivatives was further investigated using a recently established phospholipid vesicle based barrier model (Flaten et al. Eur. J. Pharm. Sci. [2006] 27, 80-90).

Question: For `CN(C)CCN1CCN(C(=O)C(CN)(Cc2ccc3ccccc3c2)Cc2ccc3ccccc3c2)CC1` [Compound 4c], which “permeability, model's classification of absorption” value is on record?
Answer: The value was “moderately absorbed in humans”.

Tested on: methicillin resistant Staphylococcus aureus (ATCC 33591)
Assay: microbe, parasite or virus in culture
Assay type: cell-based
Settings: ATCC 33591
Method in brief: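 Di-TFA salts tested in duplicate at 200 down to 0.5 μg/ml against exponentially grown bacteria at 2×10^6 cfu/ml. Growth judged by well turbidity, with no-peptide and gentamicin controls.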

Question: What does the source list for `CN(C)CCN1CCN(C(=O)C(CN)(Cc2ccc3ccccc3c2)Cc2ccc3ccccc3c2)CC1` [Compound 4c]?
Answer: MBC MRSA: 7.2 µM (≈ 3.66 µg/mL); MIC MRSA: 7.2 µM (≈ 3.66 µg/mL); Therapeutic index MRSA: 120

Question: What does the source list for `N=C(N)NCCC[C@H](NC(=O)C(CN)(Cc1ccc2ccccc2c1)Cc1ccc2ccccc2c1)C(N)=O` [Compound 4g]?
Answer: MBC MRSA: 5.3 µM (≈ 2.78 µg/mL); MIC MRSA: 5.0 µM (≈ 2.62 µg/mL)

Question: For `Cc1ccc(CC(CN)(Cc2ccc(C)cc2)C(=O)N[C@@H](CCCNC(=N)N)C(N)=O)cc1` [Compound 4h], which “MBC MRSA” value is on record?
Answer: The value was 110 µM (≈ 49.8 µg/mL).

Question: And the “MIC MRSA” value?
Answer: The value was 74 µM (≈ 33.5 µg/mL).

Question: Which “MBC MRSA” value does the source give for `N=C(N)NCCC[C@H](NC(=O)C(CN)(Cc1ccc(C(F)(F)F)cc1)Cc1ccc(C(F)(F)F)cc1)C(N)=O` [Compound 4i] here?
Answer: Its value is 6.3 µM (≈ 3.53 µg/mL).

Question: And the “MIC MRSA” value?
Answer: The value was 3.2 µM (≈ 1.79 µg/mL).

Same assay, conditions: ATCC 33591; read-out: MIC MTRSA

Question: With `CN(C)CCN1CCN(C(=O)C(CN)(Cc2ccc3ccccc3c2)Cc2ccc3ccccc3c2)CC1` [Compound 4c] as the molecule, how does the MIC read?
Answer: The MIC was 3.4 µM (≈ 1.73 µg/mL).

Tested on: methicillin resistant Staphylococcus epidermidis (ATCC 27626)
Assay: microbe, parasite or virus in culture
Assay type: cell-based
Settings: ATCC 27626
Method in brief: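 Exponentially grown bacteria (2% peptone water) at 2×10^6 cfu/ml exposed in duplicate to di-TFA salts at 0.5–200 μg/ml. Growth or no growth judged by well turbidity; no-peptide and gentamicin controls included.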

Question: For `CN(C)CCN1CCN(C(=O)C(CN)(Cc2ccc3ccccc3c2)Cc2ccc3ccccc3c2)CC1` [Compound 4c], which “MBC MRSE” value is on record?
Answer: Its value is 7.2 µM (≈ 3.66 µg/mL).

Question: And the “Therapeutic index MRSE” value?
Answer: Its value is 29.

Question: With `N=C(N)NCCC[C@H](NC(=O)C(CN)(Cc1ccc2ccccc2c1)Cc1ccc2ccccc2c1)C(N)=O` [Compound 4g] as the molecule, how does the “MBC MRSE” value read?
Answer: Its value is 6.6 µM (≈ 3.46 µg/mL).

Question: With `Cc1ccc(CC(CN)(Cc2ccc(C)cc2)C(=O)N[C@@H](CCCNC(=N)N)C(N)=O)cc1` [Compound 4h] as the molecule, how does the “MBC MRSE” value read?
Answer: Its value is 110 µM (≈ 49.8 µg/mL).

Question: For `N=C(N)NCCC[C@H](NC(=O)C(CN)(Cc1ccc(C(F)(F)F)cc1)Cc1ccc(C(F)(F)F)cc1)C(N)=O` [Compound 4i], which “MBC MRSE” value is on record?
Answer: Its value is 12.7 µM (≈ 7.12 µg/mL).

Same assay, conditions: ATCC 27626; read-out: MIC MRSE

Question: With `N=C(N)NCCC[C@H](NC(=O)C(CN)(Cc1ccc2ccccc2c1)Cc1ccc2ccccc2c1)C(N)=O` [Compound 4g] as the molecule, how does the MIC read?
Answer: The MIC was 6.6 µM (≈ 3.46 µg/mL).

Question: With `Cc1ccc(CC(CN)(Cc2ccc(C)cc2)C(=O)N[C@@H](CCCNC(=N)N)C(N)=O)cc1` [Compound 4h] as the molecule, how does the MIC read?
Answer: The MIC was 74 µM (≈ 33.5 µg/mL).

Question: For `N=C(N)NCCC[C@H](NC(=O)C(CN)(Cc1ccc(C(F)(F)F)cc1)Cc1ccc(C(F)(F)F)cc1)C(N)=O` [Compound 4i], which MIC is on record?
Answer: Its MIC is 12.7 µM (≈ 7.12 µg/mL).
